Tests used:
CAHexamer = CAHexamer (Human immunodeficiency virus type 1 group M subtype B, UniProt P12493, A146C/E177C/M317A/W316A); assay type: binding, HIV-1
[1] = biological target: CAHexamer (disulfide-stabilised HIV-1 capsid hexamer) (Human immunodeficiency virus type 1 group M subtype B, UniProt P12493, A146C/E177C/M317A/W316A); assay type: binding
[2] = biological target: disulfide-stabilised HIV-1 capsid protein hexamer (CA_(Hexamer)) R18G (HIV-1); test: cross-linking
HIV-1 capsid cores = test: Endogenous reverse transcription; assay type: biochemical; settings: DNase I and RNase A 100 μg/ml, Benzonase 250 U/ml, 100 μM each dNTP, 16 h

## Nc1ccn([C@H]2C[C@H](O)[C@@H](COP(=O)(O)OP(=O)(O)OP(=O)(O)O)O2)c(=O)n1 [dCTP]
CAHexamer
  on-rate (kon): > 2e+08 M⁻¹ s⁻¹
CAHexamer; equivalent of the off-rate
  half life of complex: 0.058 s
CAHexamer; fluorescent dCTP displaced with excess unlabeled dCTP (20 µM)
  off-rate: > 12 s⁻¹

## Cc1cn([C@H]2C[C@H](O)[C@@H](COP(=O)(O)OP(=O)(O)OP(=O)(O)O)O2)c(=O)[nH]c1=O [dTTP]
[1]; 2 nM fluorescein-labelled dTTP, 1 mM inorganic phosphate
  effect of 1 mM (physiological) inorganic phosphate on hexamer binding: no significant effect
[1]; titration of CAHexamer into labelled nucleotides
  comparison of affinity of ribose and deoxyribose nucleoside triphosphates: same affinity

## disulfide-stabilised HIV-1 capsid protein hexamer (CA_(Hexamer)) R18G (natural protein)
[2]
  stoichiometry N: 6

B1: RNase A: nuclease (protein, UniProt P61823 27-150, looked up)
Ribonuclease pancreatic: KETAAAKFERQHMDSSTSAASSSNYCNQMMKSRNLTKDRCKPVNTFVHESLADVQAVCSQKNVACKNGQTNCYQSYSTMSITDCRETGSSKYPNCAYKTTQANKHIIVACEGNPYVPVHFDASV
HIV-1 capsid cores
  effect of nucleases on encapsidated reverse transcription: failed to prevent

— publication PMC4998957 (Nature, 2016)
